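Cells were grown in 96-well plates and exposed to each compound for 48 hours at five concentrations; endpoints were interpolated linearly between bracketing concentrations, or set to the highest concentration if not reached. GI50 = concentration required for 50% inhibition of growth.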 Active and inactive are the calls of the source. No stated cut-off is given here; in the data, active = GI50 up to about 1.1 µM and inactive = higher. Where only a bound is given, the exact number is not on record here.

Here are results for 12 compounds from ChEMBL document CHEMBL1201862, “PubChem BioAssay data set” (2004).

Test systems include SK-MEL-28; SK-OV-3; COLO 205; NCI-H460; MOLT-4; CCRF-CEM; SNB-75; K562; M14; OVCAR-8; SR; MCF7; LOX IMVI; HCT-116; Malme-3M; OVCAR-3; NCI-H23; DU-145; A498.
Test in all cases: DTP human tumour cell line panel, 48 h

What is called GI50 is the concentration giving 50% growth inhibition. Take `COC(=O)Cc1ccc(Oc2nc3ccccc3nc2-c2cccs2)cc1`: the GI50 in the test with SK-MEL-28 was > 100 µM (inactive); with SK-OV-3, 24.8 µM (inactive); in the test with COLO 205, > 100 µM (inactive); in the test on NCI-H460 it was > 100 µM (inactive); in the test on MOLT-4, > 100 µM (inactive); in the test with CCRF-CEM it was > 100 µM (inactive). Moreover, the GI50 with SNB-75 was 6.81 µM (inactive); with K562 it was > 100 µM (inactive); in the test on M14, > 100 µM (inactive); in the test with OVCAR-8 it was 36.4 µM (inactive); in the test with SR, > 100 µM (inactive); with MCF7, > 100 µM (inactive). The GI50 with LOX IMVI, in the test with HCT-116, in the test on Malme-3M, in the test on OVCAR-3, in the test with NCI-H23 and in the test on DU-145 was > 100 µM (inactive) throughout.
`CCN(CC)CCCNc1nncc2cc3c([nH]c4ccccc43)c(C)c12`: the GI50 in the test with SK-MEL-28 was 17.7 µM (inactive); in the test with SK-OV-3, 15.2 µM (inactive); with COLO 205 it was 8.75 µM (inactive); with NCI-H460, 5.6 µM (inactive); in the test on MOLT-4 it was 1.49 µM (inactive); in the test on CCRF-CEM it was 4.1 µM (inactive). Moreover, the GI50 is 13.2 µM (inactive) in the test with SNB-75; 7.03 µM (inactive) in the test with K562; 20.5 µM (inactive) in the test with M14; 7.29 µM (inactive) with OVCAR-8; 13.6 µM (inactive) in the test with MCF7; 5.18 µM (inactive) with LOX IMVI. The GI50 with HCT-116 is 6.01 µM (inactive); with A498 it was 15.4 µM (inactive); with Malme-3M, 17.6 µM (inactive); in the test on OVCAR-3 it was 10.4 µM (inactive); in the test with NCI-H23 it was 14.1 µM (inactive); with DU-145 it was 12 µM (inactive).
In the case of `Cc1nc(-c2cc3c(ccc4ccccc43)oc2=O)cs1`, the GI50 was > 100 µM (inactive) with SK-MEL-28; 37.8 µM (inactive) in the test with SK-OV-3; > 100 µM (inactive) with COLO 205; 91.8 µM (inactive) with NCI-H460; > 100 µM (inactive) in the test on MOLT-4; > 100 µM (inactive) in the test on CCRF-CEM. Moreover, the GI50 with SNB-75 was 36.6 µM (inactive); in the test on K562, > 100 µM (inactive); in the test on M14, 83.9 µM (inactive); with OVCAR-8 it was 35.5 µM (inactive); with SR it was > 100 µM (inactive); with MCF7, > 100 µM (inactive). For the same compound, the GI50 in the test on LOX IMVI is > 100 µM (inactive); with HCT-116, > 100 µM (inactive); in the test on Malme-3M, 76.2 µM (inactive); with DU-145, > 100 µM (inactive).
Consider `COC(=O)c1ccc(-c2nc(C#N)c(N)o2)cc1`, for which the GI50 in the test with SK-MEL-28, in the test with SK-OV-3, in the test on COLO 205, with NCI-H460, in the test with MOLT-4 and with CCRF-CEM was > 100 µM (inactive) each time. Also, the GI50 in the test on K562 is > 100 µM (inactive); in the test with M14, > 100 µM (inactive); with OVCAR-8, 57.1 µM (inactive); in the test with SR, > 100 µM (inactive); with MCF7 it was > 100 µM (inactive); in the test on LOX IMVI, > 100 µM (inactive). Further, the GI50 in the test on HCT-116 was > 100 µM (inactive); with Malme-3M, > 100 µM (inactive); in the test on OVCAR-3 it was > 100 µM (inactive); with NCI-H23, 35.8 µM (inactive); in the test with DU-145 it was > 100 µM (inactive).
As to `N#CCCC1(CCC#N)CCCCCCCCC(CCC#N)(CCC#N)C(O)C1O` (stereo unspecified), the GI50 with SK-MEL-28, in the test on SK-OV-3, with COLO 205, in the test on NCI-H460, in the test with SNB-75 and in the test on K562 was > 100 µM (inactive) throughout. For the same compound, the GI50 is > 100 µM (inactive) in the test with M14; > 100 µM (inactive) with OVCAR-8; > 100 µM (inactive) with MCF7; > 100 µM (inactive) in the test on LOX IMVI; > 100 µM (inactive) with HCT-116; 94.6 µM (inactive) in the test with A498. Moreover, the GI50 in the test on Malme-3M, with OVCAR-3, in the test on NCI-H23 and in the test with DU-145 was > 100 µM (inactive) throughout.
`O=c1[nH]c2cc([N+](=O)[O-])c(N/N=C/c3ccc(Cl)cc3Cl)c([N+](=O)[O-])c2[nH]1`: the GI50 with SK-MEL-28 is > 100 µM (inactive); in the test with SK-OV-3, 30.1 µM (inactive); with COLO 205, > 100 µM (inactive); in the test on NCI-H460, 83 µM (inactive); in the test with MOLT-4, 32.9 µM (inactive); in the test with CCRF-CEM it was 23.8 µM (inactive). Besides, the GI50 is > 100 µM (inactive) in the test on SNB-75; 43.6 µM (inactive) in the test on K562; > 100 µM (inactive) in the test on M14; 20 µM (inactive) with OVCAR-8; 42.6 µM (inactive) in the test on MCF7; 18.5 µM (inactive) with LOX IMVI. Moreover, the GI50 with HCT-116 was 25.7 µM (inactive); with A498, 14.3 µM (inactive); in the test on Malme-3M, 31.2 µM (inactive); with OVCAR-3, 17.4 µM (inactive); in the test with NCI-H23, 71.3 µM (inactive); in the test with DU-145, 51.9 µM (inactive).
In the case of `C=C(CC(=O)Nc1ccc(C(=O)OC)o1)C(=O)OC`, the GI50 in the test with SK-MEL-28 was 23 µM (inactive); in the test with SK-OV-3 it was 28.7 µM (inactive); with COLO 205, 19.6 µM (inactive); in the test on NCI-H460 it was 29.9 µM (inactive); in the test with MOLT-4 it was 18.8 µM (inactive); in the test with CCRF-CEM it was > 10 µM (inactive). Besides, the GI50 was 32.4 µM (inactive) with SNB-75; 19.1 µM (inactive) in the test with M14; 36.9 µM (inactive) with OVCAR-8; 17.9 µM (inactive) in the test on MCF7; 30.8 µM (inactive) in the test with LOX IMVI; 29.4 µM (inactive) with HCT-116. In addition, the GI50 was 42.8 µM (inactive) in the test with A498, 19.7 µM (inactive) in the test with Malme-3M, 28 µM (inactive) in the test with NCI-H23 and 31.9 µM (inactive) in the test with DU-145.
For `CC(C)(C)OC(=O)N1C(OP(=O)(Oc2ccccc2)Oc2ccccc2)=COc2cccnc21`, the GI50 in the test with SK-MEL-28 is 54.2 µM (inactive); in the test with SK-OV-3, 98.2 µM (inactive); in the test with COLO 205, 34.8 µM (inactive); with NCI-H460, 31.8 µM (inactive); in the test on MOLT-4, 17.7 µM (inactive); in the test with SNB-75, 33.3 µM (inactive). The GI50 was 44.9 µM (inactive) in the test with K562; 37.1 µM (inactive) in the test with M14; 43.2 µM (inactive) in the test on OVCAR-8; 27.3 µM (inactive) in the test on SR; 32.7 µM (inactive) in the test with MCF7; 26.1 µM (inactive) with LOX IMVI. Further, the GI50 is 51.2 µM (inactive) in the test with HCT-116; 30.6 µM (inactive) in the test on Malme-3M; 72.3 µM (inactive) in the test with OVCAR-3; 45.5 µM (inactive) in the test on NCI-H23; > 100 µM (inactive) with DU-145.
In the case of `O=c1c(Br)cc2c(-c3ccccc3)c3cc(Br)c(O)c(Br)c3oc-2c1Br`, the GI50 in the test on SK-MEL-28 was > 100 µM (inactive); with SK-OV-3, 48.4 µM (inactive); in the test on COLO 205, 51.2 µM (inactive); in the test on NCI-H460, 77.4 µM (inactive); with MOLT-4 it was 29.1 µM (inactive); with CCRF-CEM, > 100 µM (inactive). For the same compound, the GI50 is > 100 µM (inactive) with K562; > 100 µM (inactive) in the test with M14; > 100 µM (inactive) in the test with OVCAR-8; 79.3 µM (inactive) in the test with MCF7; 37.4 µM (inactive) in the test with LOX IMVI; 44.8 µM (inactive) in the test with HCT-116. The GI50 in the test with A498 was 27.3 µM (inactive); with Malme-3M, > 100 µM (inactive); with OVCAR-3, > 100 µM (inactive); in the test on NCI-H23, > 100 µM (inactive); in the test on DU-145 it was > 100 µM (inactive).
Take `COC(=O)/N=[N+](\[O-])C(c1ccc(OC)cc1)C1CCCCC1` (stereo unspecified): the GI50 with SK-MEL-28 was 13.6 µM (inactive); with SK-OV-3, 3.67 µM (inactive); in the test with COLO 205 it was 0.611 µM (active); in the test on NCI-H460, 1.39 µM (inactive); in the test with MOLT-4, 2.87 µM (inactive); in the test on CCRF-CEM it was 2.2 µM (inactive). The GI50 with SNB-75 was 5.22 µM (inactive); in the test on K562 it was 2.67 µM (inactive); in the test on M14 it was 2.99 µM (inactive); in the test on OVCAR-8, 4.75 µM (inactive); in the test on MCF7, 7.35 µM (inactive); in the test on LOX IMVI, 3.33 µM (inactive). Moreover, the GI50 was 0.652 µM (active) in the test with HCT-116; 6.67 µM (inactive) in the test on A498; 2.02 µM (inactive) with Malme-3M; 6.15 µM (inactive) in the test with OVCAR-3; 0.664 µM (active) in the test with NCI-H23; 1.86 µM (inactive) in the test with DU-145.
As for `COc1ccc(N[S+]([O-])CCc2ccccc2)cc1` (stereo unspecified), the GI50 is > 100 µM (inactive) in the test with SK-MEL-28; 4.35 µM (inactive) in the test on SK-OV-3; > 100 µM (inactive) in the test on COLO 205; > 100 µM (inactive) in the test with NCI-H460; > 100 µM (inactive) in the test with MOLT-4; > 100 µM (inactive) with CCRF-CEM. Further, the GI50 with SNB-75 was > 100 µM (inactive); in the test on K562, 73.3 µM (inactive); in the test on M14, > 100 µM (inactive); in the test on OVCAR-8 it was > 100 µM (inactive); with SR, > 100 µM (inactive); in the test with MCF7, > 100 µM (inactive). Further, the GI50 in the test on LOX IMVI, in the test with HCT-116, in the test with Malme-3M, in the test on OVCAR-3, with NCI-H23 and with DU-145 was > 100 µM (inactive) in each case.
For `O=C1C(Cl)=C(Nc2ccc(S(=O)(=O)O)cc2)C(=O)c2ccccc21`, the GI50 with SK-MEL-28 was 32.1 µM (inactive); with COLO 205, 17.4 µM (inactive); with NCI-H460 it was 33.6 µM (inactive); in the test with MOLT-4, 42.1 µM (inactive); in the test with CCRF-CEM, 26.7 µM (inactive); in the test on SNB-75, 67.8 µM (inactive). Moreover, the GI50 was 28.2 µM (inactive) in the test on K562; 21.4 µM (inactive) in the test with M14; 30.1 µM (inactive) with OVCAR-8; 32.6 µM (inactive) with SR; 20.9 µM (inactive) in the test on MCF7; 30.3 µM (inactive) with LOX IMVI. Further, the GI50 in the test with HCT-116 is 52.6 µM (inactive); in the test on Malme-3M, 20.1 µM (inactive); with OVCAR-3, 20.8 µM (inactive); in the test with NCI-H23 it was 37.7 µM (inactive); in the test with DU-145 it was 16.3 µM (inactive).
